Laboratory results published in PubChem BioAssay (NCI).
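All cell lines were grown in 96-well plates and treated with compound for 48 hours. TGI is the concentration that stops growth completely.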

Key:
Assay in all cases: NCI tumour cell line growth inhibition, 48 h
TK-10 renal = test system: TK-10 renal
UACC-62 melanoma = test system: UACC-62 melanoma
SK-MEL-5 melanoma = test system: SK-MEL-5 melanoma
786-0 renal = test system: 786-0 renal
UACC-257 melanoma = test system: UACC-257 melanoma
U251 CNS = test system: U251 CNS
OVCAR-3 ovarian = test system: OVCAR-3 ovarian
KM12 colon = test system: KM12 colon
BT-549 breast = test system: BT-549 breast
EKVX NSCLC = test system: EKVX NSCLC
ACHN renal = test system: ACHN renal
NCI-H226 lung = test system: NCI-H226 lung
LOX IMVI melanoma = test system: LOX IMVI melanoma
COLO 205 colon = test system: COLO 205 colon
MDA-MB-231 breast = test system: MDA-MB-231 breast
NCI/ADR-RES ovarian = test system: NCI/ADR-RES ovarian
OVCAR-4 ovarian = test system: OVCAR-4 ovarian
OVCAR-5 ovarian = test system: OVCAR-5 ovarian
A549 NSCLC = test system: A549 NSCLC
SF-539 CNS = test system: SF-539 CNS
HCT-116 colon = test system: HCT-116 colon
MALME-3M melanoma = test system: MALME-3M melanoma
A498 renal = test system: A498 renal
HT29 colon = test system: HT29 colon
CAKI-1 renal = test system: CAKI-1 renal
SK-OV-3 ovarian = test system: SK-OV-3 ovarian
SW-620 colon = test system: SW-620 colon
SR leukemia = test system: SR leukemia
SNB-19 CNS = test system: SNB-19 CNS
K-562 leukemia = test system: K-562 leukemia
SF-268 CNS = test system: SF-268 CNS
HOP-62 NSCLC = test system: HOP-62 NSCLC
SF-295 CNS = test system: SF-295 CNS
MCF7 breast = test system: MCF7 breast
MDA-MB-435 = test system: MDA-MB-435
HCT-15 colon = test system: HCT-15 colon
PC-3 prostate = test system: PC-3 prostate
HCC-2998 colon = test system: HCC-2998 colon
IGROV1 ovarian = test system: IGROV1 ovarian
RPMI-8226 leukemia = test system: RPMI-8226 leukemia
SK-MEL-2 melanoma = test system: SK-MEL-2 melanoma
NCI-H460 lung = test system: NCI-H460 lung
M14 melanoma = test system: M14 melanoma
T-47D breast = test system: T-47D breast
OVCAR-8 ovarian = test system: OVCAR-8 ovarian
DU-145 prostate = test system: DU-145 prostate
UO-31 renal = test system: UO-31 renal
NCI-H23 lung = test system: NCI-H23 lung

Measured: TGI

CCC(C=O)P1(=O)OC(C)(C)CN1C(C)(C)C (stereo not drawn)
81.3 µM: OVCAR-3 ovarian
> 100 µM: all other assays above
